Reference: US12077512B2, “Compositions and methods for reducing tactile dysfunction, anxiety, and social impairment” (President and Fellows of Harvard College, priority 2019, dated 2024)

Tests used:
[1] = test system: Advillin^Cre and Mecp^2f/y mice and control littermates; test: Magnitude of startle response to a 125 dB noise; format: in vivo; details: i.p., 2 mg/kg vs saline, all mice
Protocol: FIG. 3 is a graph showing magnitude of startle response to a 125 dB noise in mice following i.p. administration of either saline or 2 mg/kg midazolam treatment. Responses are expressed as percent of startle response to a 125 dB noise. Two-way ANOVA with post-hoc Sidak's test, *, p<0.05.

[2] = test system: Advillin^Cre and Mecp^2f/y mice and control littermates; test: Tactile prepulse inhibition (PPI): startle response to a 125 dB noise preceded by a light air puff; format: in vivo; details: i.p., 2 mg/kg vs saline, both Mecp2 mutants and controls
Protocol: FIG. 1 is a graph showing percent inhibition of the startle response to a 125 dB noise, when the startle noise is preceded by a light air puff in mice following i.p. administration of either saline or 2 mg/kg midazolam treatment. Two-way ANOVA with post-hoc Sidak's test, *, p<0.05.

Cc1ncc2n1-c1ccc(Cl)cc1C(c1ccccc1F)=NC2 [midazolam]
sedation ([1]; evidenced by startle amplitude): caused significant sedation | reduction in startle amplitude ([1]; startle to 125 dB noise): ~50% | tactile sensitivity (percent inhibition of the startle response to a 125 dB noise when preceded by a light air puff, tactile PPI) [2]: significantly attenuated tactile sensitivity
